Source: US10647700B2, “EZH2 inhibitor and use thereof” (TARAPEUTICS SCIENCE INC., priority 2017, dated 2020)

Molecular target: EZH2 (Homo sapiens (Human), UniProt Q15910)
Test: E-cadherin promoter luciferase reporter gene primary screening in 293T cells
Format: cell-based
Details: 293T cells treated for 24 hours, Dual-Glo luciferase; for 1 μM relative fluorescence intensity: compound 1 μM; for 10 μM relative fluorescence intensity: compound 10 μM; for 3 μM relative fluorescence intensity: compound 3 μM
Text: EZH2 suppresses the expression of downstream E-cadherin, and upon EZH2 suppression, expression of E-cadherin will increase. Based on such principle, a reporter gene expression vector was constructed using luciferase.
The amplified fragments after PCR and the PGL4.1 vector (purchased from TAKARA, Japan) were respectively subjected to enzyme digestion with SacI and BglII (purchased from TAKARA, Japan), and then purified with PCR cleanup kit (Axygen PCR cleanup kit). Subsequently, the purified and enzyme-digested PCR products was ligated to the purified and enzyme-digested PGL4.1 vector using ligase solution I (DNA Ligation Kit Ver.2.1, purchased from TAKARA, Japan), and subjected to transformation. Single clones were then screened out and subjected to sequencing, and the obtained positive plasmid containing promoter fragments of Ecadherin was named E-cadherin RE-PGL4.1.
Meanwhile, a Renilla fluorescent vector was constructed using PCDNA4.1 (purchased from Thermofisher, USA) as the template to amplify the fragment of CMV promoter. After enzymatic digestion of the amplified CMV sequences and pGL4.70 vector (purchased from Promega, USA) with KpnI and XhoI (purchased from Promega, USA), purification was conducted with PCR cleanup kit (Axygen PCR cleanup kit). Then the enzyme-digested PCR product was ligated to the enzyme-digested PGL4.70 vector using ligase solution I (DNA Ligation Kit Ver.2.1, purchased from TAKARA, Japan) and the resultant was subjected to transformation. Subsequently single clones were screened and subjected to sequencing, and the obtained plasmid that contained CMV sequence was named as Plasmid Renilla luciferase-pGL4.70. Said plasmid utilized CMV promoter to achieve high expression of Renilla luciferase, which served as the control fluorescence for the primary screening system.
The cells were firstly added with 20 μL Dual-Glo® Luciferase Assay Reagent, then incubated under room temperature for 10 minutes, and read on microplate reader Spectramax i3 (Molecular Devices, USA) to obtain the data of primary screening, which is shown in Table 1.

Chain of EZH2 (Q15910 whole entry): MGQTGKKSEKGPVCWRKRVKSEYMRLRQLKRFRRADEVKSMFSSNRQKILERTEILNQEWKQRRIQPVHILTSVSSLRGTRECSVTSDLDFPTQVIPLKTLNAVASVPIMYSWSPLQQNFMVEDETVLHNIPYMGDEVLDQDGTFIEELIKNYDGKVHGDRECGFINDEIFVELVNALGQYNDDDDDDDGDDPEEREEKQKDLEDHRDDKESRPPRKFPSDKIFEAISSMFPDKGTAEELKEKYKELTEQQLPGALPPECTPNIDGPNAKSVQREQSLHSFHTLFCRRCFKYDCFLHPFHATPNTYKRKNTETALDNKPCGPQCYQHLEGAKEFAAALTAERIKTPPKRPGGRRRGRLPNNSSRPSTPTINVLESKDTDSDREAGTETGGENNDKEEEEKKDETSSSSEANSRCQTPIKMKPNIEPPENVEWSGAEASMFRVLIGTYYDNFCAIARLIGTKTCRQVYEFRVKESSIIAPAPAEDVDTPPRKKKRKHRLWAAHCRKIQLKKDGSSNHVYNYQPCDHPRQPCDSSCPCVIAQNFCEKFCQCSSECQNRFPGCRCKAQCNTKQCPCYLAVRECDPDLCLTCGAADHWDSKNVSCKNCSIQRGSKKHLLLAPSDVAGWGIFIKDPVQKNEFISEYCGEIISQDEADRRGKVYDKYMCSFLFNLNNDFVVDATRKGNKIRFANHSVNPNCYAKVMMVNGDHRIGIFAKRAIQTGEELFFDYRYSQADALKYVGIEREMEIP
Chain of EZH2 (O75530 whole entry partner): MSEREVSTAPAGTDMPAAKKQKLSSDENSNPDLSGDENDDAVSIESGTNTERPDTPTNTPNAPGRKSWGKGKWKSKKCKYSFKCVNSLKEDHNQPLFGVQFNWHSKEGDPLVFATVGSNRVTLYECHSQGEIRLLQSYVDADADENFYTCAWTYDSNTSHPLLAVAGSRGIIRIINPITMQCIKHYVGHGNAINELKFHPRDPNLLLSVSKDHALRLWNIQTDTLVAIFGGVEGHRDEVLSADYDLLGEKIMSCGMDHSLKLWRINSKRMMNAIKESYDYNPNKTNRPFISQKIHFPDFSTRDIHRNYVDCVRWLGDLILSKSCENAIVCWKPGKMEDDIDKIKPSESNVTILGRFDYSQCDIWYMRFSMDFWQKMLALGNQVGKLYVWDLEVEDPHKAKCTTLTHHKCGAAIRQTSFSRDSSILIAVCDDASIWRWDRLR
Chain of EZH2 (Q15022 whole entry partner): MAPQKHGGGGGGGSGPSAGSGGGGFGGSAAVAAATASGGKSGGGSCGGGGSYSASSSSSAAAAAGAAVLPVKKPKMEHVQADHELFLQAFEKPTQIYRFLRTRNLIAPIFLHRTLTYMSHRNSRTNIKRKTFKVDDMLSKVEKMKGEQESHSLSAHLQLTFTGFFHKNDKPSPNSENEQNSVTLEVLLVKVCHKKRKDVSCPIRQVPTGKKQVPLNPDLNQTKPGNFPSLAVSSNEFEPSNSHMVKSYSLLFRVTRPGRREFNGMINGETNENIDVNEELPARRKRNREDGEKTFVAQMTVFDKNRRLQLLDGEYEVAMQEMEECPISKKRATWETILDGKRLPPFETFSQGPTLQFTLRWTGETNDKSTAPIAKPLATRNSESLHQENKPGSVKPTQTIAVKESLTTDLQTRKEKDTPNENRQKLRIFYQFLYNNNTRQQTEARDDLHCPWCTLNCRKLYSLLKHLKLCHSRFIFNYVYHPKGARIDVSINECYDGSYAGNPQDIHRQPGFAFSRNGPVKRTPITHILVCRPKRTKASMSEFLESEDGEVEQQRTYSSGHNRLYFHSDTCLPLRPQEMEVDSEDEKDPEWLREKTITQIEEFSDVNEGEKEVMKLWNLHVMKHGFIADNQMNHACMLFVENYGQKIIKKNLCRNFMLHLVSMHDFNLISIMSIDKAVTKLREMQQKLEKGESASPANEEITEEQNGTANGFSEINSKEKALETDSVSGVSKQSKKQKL
Chain of EZH2 (Q09028 whole entry partner): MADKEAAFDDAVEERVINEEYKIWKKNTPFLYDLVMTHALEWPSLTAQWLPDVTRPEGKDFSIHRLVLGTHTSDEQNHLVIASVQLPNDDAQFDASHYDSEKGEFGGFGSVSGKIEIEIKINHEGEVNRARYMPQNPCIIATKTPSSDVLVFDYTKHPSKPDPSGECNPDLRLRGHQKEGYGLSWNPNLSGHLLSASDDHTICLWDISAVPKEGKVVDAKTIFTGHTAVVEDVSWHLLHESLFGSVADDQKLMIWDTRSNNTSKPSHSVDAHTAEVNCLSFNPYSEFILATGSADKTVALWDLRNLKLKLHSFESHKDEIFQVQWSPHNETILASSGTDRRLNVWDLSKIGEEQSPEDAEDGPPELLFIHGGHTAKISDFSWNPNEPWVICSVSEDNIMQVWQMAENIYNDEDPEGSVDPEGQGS

`CCN(C(=O)C1CCCC1)c1cc(-c2ccc(N3CCN(CC4CC4)CC3)nc2)cc(C(=O)NCc2c(C)cc(C)[nH]c2=O)c1C` [Compound 15, 5-(6-(4-(cyclopropylmethyl)piperazin-1-yl)pyridin-3-yl)-N-((4,6-dimethyl-2-oxo-1,2-dihydropyridin-3-yl)methyl)-3-(N-ethylcyclopentanecarboxamido)-2-methylbenzamide] was tested, and the “1 μM relative fluorescence intensity” value was 262.61 and the “10 μM relative fluorescence intensity” value was 335.61.
`CCN(C(=O)C1CCCC1)c1cc(-c2ccnc(N3CCN(C)CC3)c2)cc(C(=O)NCc2c(C)cc(C)[nH]c2=O)c1C` [Compound 17, N-((4,6-dimethyl-2-oxo-1,2-dihydropyridin-3-yl)methyl)-3-(N-ethylcyclopentanecarboxamido)-2-methyl-5-(2-(4-methylpiperazin-1-yl)pyridin-4-yl)benzamide] was tested, and the “1 μM relative fluorescence intensity” value was 172, the “3 μM relative fluorescence intensity” value was 223 and the “10 μM relative fluorescence intensity” value was 303.
`CCN(C(=O)C1CCCC1)c1cc(-c2ccc(N3CCN(C(C)C)CC3)nc2)cc(C(=O)NCc2c(C)cc(C)[nH]c2=O)c1C` [Compound 18, N-((4,6-dimethyl-2-oxo-1,2-dihydropyridin-3-yl)methyl)-3-(N-ethylcyclopentanecarboxamido)-5-(6-(4-isopropylpiperazin-1-yl)pyridin-3-yl)-2-methylbenzamide] was tested, and the “1 μM relative fluorescence intensity” value was 289, the “3 μM relative fluorescence intensity” value was 356 and the “10 μM relative fluorescence intensity” value was 423.
With `CCN(C(=O)C1CCCC1)c1cc(-c2ccc(C#N)c(F)c2)cc(C(=O)NCc2c(C)cc(C)[nH]c2=O)c1C` [Compound 19, 4′-cyano-N-((4,6-dimethyl-2-oxo-1,2-dihydropyridin-3-yl)methyl)-5-(N-ethylcyclopentanecarboxamido)-3′-fluoro-4-methyl-[1,1′-diphenyl]-3-carboxamide] the “1 μM relative fluorescence intensity” value was 189, the “3 μM relative fluorescence intensity” value was 228 and the “10 μM relative fluorescence intensity” value was 310.
For `CCN(C(=O)C1CCCC1)c1cc(-c2ccc(C(=O)N3CCOCC3)cc2)cc(C(=O)NCc2c(C)cc(C)[nH]c2=O)c1C` [Compound 20, N-((4,6-dimethyl-2-oxo-1,2-dihydropyridin-3-yl)methyl)-5-(N-ethylcyclopentanecarboxamido)-4-methyl-4′-(morpholin-4-carbonyl)-[1,1′-diphenyl]-3-carboxamide], the “1 μM relative fluorescence intensity” value was 193, the “3 μM relative fluorescence intensity” value was 213 and the “10 μM relative fluorescence intensity” value was 227.
In the case of `CCN(C(=O)C1CCCC1)c1cc(-c2ccc(N3CCOCC3)cc2)cc(C(=O)NCc2c(C)cc(C)[nH]c2=O)c1C` [Compound 21, N-((4,6-dimethyl-2-oxo-1,2-dihydropyridin-3-yl)methyl)-5-(N-ethylcyclopentanecarboxamido)-4-methyl-4′-morpholinyl-[1,1′-diphenyl]-3-carboxamide], the “1 μM relative fluorescence intensity” value is reported as 170, the “3 μM relative fluorescence intensity” value is reported as 225 and the “10 μM relative fluorescence intensity” value is reported as 339.
With `CCN(C(=O)C1CCCC1)c1cc(-c2ccc(CC(=O)N3CCOCC3)cc2)cc(C(=O)NCc2c(C)cc(C)[nH]c2=O)c1C` [Compound 22, N-((4,6-dimethyl-2-oxo-1,2-dihydropyridin-3-yl)methyl)-5-(N-ethylcyclopentanecarboxamido)-4-methyl-4′-(2-morpholinyl-2-oxoethyl)-[1,1′-diphenyl]-3-carboxamide] the “1 μM relative fluorescence intensity” value was 171, the “3 μM relative fluorescence intensity” value was 194 and the “10 μM relative fluorescence intensity” value was 242.
With `CCN1CCN(Cc2ccc(-c3cc(C(=O)NCc4c(C)cc(C)[nH]c4=O)c(C)c(N(CC)C(=O)C4CCCC4)c3)cc2)CC1` [Compound 23, N-((4,6-dimethyl-2-oxo-1,2-dihydropyridin-3-yl)methyl)-5-(N-ethylcyclopentanecarboxamido)-4′-((4-ethylpiperazin-1-yl)methyl)-4-methyl-[1,1′-diphenyl]-3-carboxamide] the “1 μM relative fluorescence intensity” value was 290, the “3 μM relative fluorescence intensity” value was 346 and the “10 μM relative fluorescence intensity” value was 343.
With `CCN1CCN(c2ccc(-c3cc(C(=O)NCc4c(C)cc(C)[nH]c4=O)c(C)c(N(CC)C(=O)C4CCCC4)c3)cc2)CC1` [Compound 27, N-((4,6-dimethyl-2-oxo-1,2-dihydropyridin-3-yl)methyl)-5-(N-ethylcyclopentanecarboxamido)-4′-(4-ethylpiperazin-1-yl)-4-methyl-[1,1′-diphenyl]-3-carboxamide] the “1 μM relative fluorescence intensity” value was 204.86 and the “10 μM relative fluorescence intensity” value was 335.96.
With `CCN(C(=O)C1CCCC1)c1cc(-c2ccc(NS(=O)(=O)C3CC3)cc2)cc(C(=O)NCc2c(C)cc(C)[nH]c2=O)c1C` [Compound 28, 4′-(cyclopropanesulfonamide)-N-((4,6-dimethyl-2-oxo-1,2-dihydropyridin-3-yl)methyl)-5-(N-ethylcyclopentanecarboxamido)-4-methyl-[1,1′-diphenyl]-3-carboxamide] the “1 μM relative fluorescence intensity” value was 163.93 and the “10 μM relative fluorescence intensity” value was 345.23.
With `CCN(C(=O)C1CCCC1)c1cc(-c2ccc(OCCCN3CCOCC3)cc2)cc(C(=O)NCc2c(C)cc(C)[nH]c2=O)c1C` [Compound 30, N-((4,6-dimethyl-2-oxo-1,2-dihydropyridin-3-yl)methyl)-5-(N-ethylcyclopentanecarboxamido)-4-methyl-4′-(3-morpholinopropoxy)-[1,1′-diphenyl]-3-carboxamide] the “1 μM relative fluorescence intensity” value was 253.44 and the “10 μM relative fluorescence intensity” value was 231.21.
In the case of `CCN(C(=O)C1CCCC1)c1cc(C(N)=O)cc(C(=O)NCc2c(C)cc(C)[nH]c2=O)c1C` [Compound 34, N^1-((4,6-dimethyl-2-oxo-1,2-dihydropyridin-3-yl)methyl)-5-(N-ethylcyclopentanecarboxamido)-6-methyl-isophthalamide], the “1 μM relative fluorescence intensity” value is reported as 98.36 and the “10 μM relative fluorescence intensity” value is reported as 109.72.
In the case of `CCN(C(=O)C1CCCC1)c1cc(-c2ccc(CN3CCNC[C@H]3CO)cc2)cc(C(=O)NCc2c(C)cc(C)[nH]c2=O)c1C` [Compound 35], the “1 μM relative fluorescence intensity” value is reported as 83.82 and the “10 μM relative fluorescence intensity” value is reported as 123.19.
With `CCN(C(=O)C1CCCC1)c1cc(-c2ccc(N3CCN(C)CC3)nc2)cc(C(=O)NCc2c(C)cc(C)[nH]c2=O)c1C` [Compound 36, N-((4,6-dimethyl-2-oxo-1,2-dihydropyridin-3-yl)methyl)-3-(N-ethylcyclopentanecarboxamido)-2-methyl-5-(6-(4-methylpiperazin-1-yl)pyridin-3-yl)benzamide] the “1 μM relative fluorescence intensity” value was 211.26 and the “10 μM relative fluorescence intensity” value was 312.36.
For `CCN(C(=O)C1CCCC1)c1cc(-c2ccc(N3CCC(N)CC3)nc2)cc(C(=O)NCc2c(C)cc(C)[nH]c2=O)c1C` [Compound 37, 5-(6-(4-aminopiperidin-1-yl)pyridin-3-yl)-N-((4,6-dimethyl-2-oxo-1,2-dihydropyridin-3-yl)methyl)-3-(N-ethylcyclopentanecarboxamido)-2-methylbenzamide], the “1 μM relative fluorescence intensity” value was 163.93 and the “10 μM relative fluorescence intensity” value was 345.23.
For `CCN(C(=O)C1CCCC1)c1cc(-c2ccc(Oc3ccccc3)cc2)cc(C(=O)NCc2c(C)cc(C)[nH]c2=O)c1C` [Compound 41, N-((4,6-dimethyl-2-oxo-1,2-dihydropyridin-3-yl)methyl)-5-(N-ethylcyclopentanecarboxamido)-4-methyl-4′-phenoxy-[1,1′-diphenyl]-3-carboxamide], the “1 μM relative fluorescence intensity” value was 156.04 and the “10 μM relative fluorescence intensity” value was 183.38.
For `CCN(C(=O)C1CCCC1)c1cc(-c2ccc(OCCCN3CCOCC3)c(F)c2)cc(C(=O)NCc2c(C)cc(C)[nH]c2=O)c1C` [Compound 42, N-((4,6-dimethyl-2-oxo-1,2-dihydropyridin-3-yl)methyl)-5-(N-ethylcyclopentanecarboxamido)-3′-fluoro-4-methyl-4′-(3-morpholinopropoxy)-[1,1′-diphenyl]-3-carboxamide], the “1 μM relative fluorescence intensity” value was 179.84 and the “10 μM relative fluorescence intensity” value was 234.50.
In the case of `CCN(C(=O)C1CCCC1)c1cc(-c2ccc(C(C)=O)s2)cc(C(=O)NCc2c(C)cc(C)[nH]c2=O)c1C` [Compound 43, 5-(5-acetylthiophene-2-yl)-N-((4,6-dimethyl-2-oxo-1,2-dihydropyridin-3-yl)methyl)-3-(N-ethylcyclopentanecarboxamido)-2-methylbenzamide], the “1 μM relative fluorescence intensity” value is reported as 147.30 and the “10 μM relative fluorescence intensity” value is reported as 235.05.
In the case of `CCN(C(=O)C1CCCC1)c1cc(-c2ccc(OCCCN3CCOCC3)cc2F)cc(C(=O)NCc2c(C)cc(C)[nH]c2=O)c1C` [Compound 44, N-((4,6-dimethyl-2-oxo-1,2-dihydropyridin-3-yl)methyl)-5-(N-ethylcyclopentanecarboxamido)-2′-fluoro-4-methyl-4′-(3-morpholinopropoxy)-[1,1′-diphenyl]-3-carboxamide], the “1 μM relative fluorescence intensity” value is reported as 181.04 and the “10 μM relative fluorescence intensity” value is reported as 217.02.
